In patent US12285418B1, “2-(5-aminopyridin-2-yl)-N-benzylacetamides and use thereof in the treatment of acute myeloid leukemia” (University of Jeddah, priority 2024, dated 2025):

Key:
Type in all cases: cell-based
[1] = system: HL60 cells; experiment: Cell viability assay (CellTiter-Blue), HL60; conditions: Homo sapiens, HL-60, 48 h incubation, mean±SD, read-out: IC50 against HL60 cells
Experimental: (§1) Cell viability was determined using the CellTiter®-Blue Cell Viability Assay kit (Promega, Madison, WI, USA) as previously described (Alkhatabi et al., 2022). Approximately 10^4 cells were counted, plated in a 96-well plate in the presence of test compounds ranging from 0.01 to 40 μM in quadruplicate, and incubated for 48 h at 37° C. in a humidified incubator. After the incubation period was completed, 20 μL of CellTiter®-Blue Cell Viability Assay reagent was added to each well and incubated for an additional 2 h for fluorescence development. Florescence was measured at Ex/Em 540/590 on a SpectraMax® i3 Multi-Mode microplate reader (Molecular Devices, LLC, San Jose, CA, USA) and plotted against the drug concentration to determine the IC50 of the test compounds. The IC50 was obtained by a nonlinear regression model using GraphPad Prism 10.1.1 (GraphPad Software, Inc., USA).
(§2) The half-maximal inhibitory concentration (IC50) of each drug was calculated using the GraphPad Prism software version 10.1.1. Flow cytometric data were analyzed using Diva software provided with the BD FACSCanto II Clinical Flow Cytometry System (BD Biosciences, USA). Student's paired t-test and Two-way ANOVA were used to compare data points. Data are presented as mean+SD, and at least three independent experiments were performed. […]

[2] = system: MV4-11 cells; experiment: Cell viability assay (CellTiter-Blue), MV4-11; conditions: Homo sapiens, 48 h incubation, mean±SD, read-out: IC50 against MV4-11 cells
Experimental: as §1, §2

[3] = system: KG1a cells; experiment: Cell viability assay (CellTiter-Blue), KG1a; conditions: Homo sapiens, KG-1a, 48 h incubation, mean±SD, read-out: IC50 against KG1a cells
Experimental: as §1, §2

[4] = system: K562 cells; experiment: Cell viability assay (CellTiter-Blue), K562; conditions: Homo sapiens, 48 h incubation, mean±SD, read-out: IC50 against K562 cells
Experimental: as §1, §2

Measured: IC50

O=C(Cc1ccc(/N=C2\OC(=O)c3ccccc32)cn1)NCc1ccccc1 [Compound II, (Z)-N-benzyl-2-(5-((3-oxoisobenzofuran-1 (3H)-ylidene)amino)pyridin-2-yl) acetamide]
> 10 µM: all assays above

O=C(Cc1ccc(NC(=O)c2ccccc2O)cn1)NCc1ccccc1 [Compound III, N-(6-(2-(Benzylamino)-2-oxoethyl)pyridin-3-yl)-2-hydroxybenzamide]
> 10 µM: all assays above
